Strand notation (5' to 3'): a small letter for the sugar, then the base; units joined by * are phosphorothioate-linked, units joined directly phosphodiester-linked; [ ] holds rarer units or linkages, { } end groups; capitals alone tell only the bases. e = 2'-O-(2-methoxyethyl) (MOE); [5mC] = 5-methylcytosine; d = 2'-deoxy (DNA)
What was measured:
[1] = system: captopril and ISIS 461756-induced vascular permeability; assay: Evans Blue vascular permeability in captopril and ISIS 461756-induced angioedema mouse models (Example 11); format: in vivo; details: for OD600 nm of Evans Blue dye, Colons / OD600 nm of Evans Blue dye, Ears / OD600 nm of Evans Blue dye, Feet / OD600 nm of Evans Blue dye, Intestines: captopril Yes
Description: Hereditary angioedema (HAE) is characterized by local swelling and increase in vascular permeability in subcutaneous tissues (Morgan, B. P. N. Engl. J. Med. 363: 581-83, 2010). It is caused by a deficiency of the C1 inhibitor, a protein of the complement system. Two mouse models were used in this study including an established mouse model of C1-INH deficiency and a captopril-induced edema model, both of which cause vascular permeability, a hallmark of HAE. Reversal of vascular permeability is accompanied by increased plasma levels of high molecular weight kininogen (HMWK).
In the first model, angioedema was induced by treatment with Captopril, a known antihypertensive agent, which increases vascular permeability in mice and replicates the pathology of hereditary angioedema.
In the second model, angioedema was induced by treatment with ISIS 461756, an antisense oligonucleotide which targets murine C1 inhibitor mRNA, which increases vascular permeability in mice and replicates the pathology of hereditary angioedema. ISIS 461756 (SEQ ID NO: 2245; […]) is a 5-10-5 MOE gapmer targeting nucleosides 1730-1749 of NM_009776.3 (SEQ ID NO: 2243).
The effect of HOE-140 and ISIS 482584, an antisense oligonucleotide inhibitor of PKK, were evaluated in the Captopril and ISIS 461756-induced mouse models of vascular permeability. Some of the murine groups were treated with HOE-140, a selective antagonist of the bradykinin B2 receptor, which blocks vasodilation and vascular permeability (Cruden and Newby, Expert Opin. Pharmacol. 9: 2383-90, 2008). Other mice were treated with ISIS 482584, which inhibits PKK mRNA expression. The effect of treatment with HOE-140 was compared with the effect of treatment with ISIS 482584.
Group 1 consisted of 4 C57BL/6J-Tyrc-2J mice treated with PBS administered subcutaneously twice a week for 4 weeks. No other treatment was administered to Group 1 which served as a control group to measure the basal level of vascular permeability.
Group 2 consisted of 8 C57BL/6J-Tyrc-2J mice treated with PBS administered subcutaneously twice a week for 4 weeks. At the end of the treatment, the mice were intraperitoneally administered 20 μg of captopril. Group 2 served as a PBS control group for captopril-induced vascular permeability.
(§1) Group 3 consisted of 8 C57BL/6J-Tyrc-2J mice treated with PBS administered subcutaneously twice a week for 4 weeks. On day 14, the mice were treated with 50 mg/kg of the antisense oligonucleotide targeting C1 inhibitor, ISIS 461756, administered subcutaneously twice a week for 2 weeks. At the end of the treatment period, the mice were intraperitoneally administered 20 μg of captopril. Group 3 served as a PBS control group for captopril and ISIS 461756-induced vascular permeability.
Group 4 consisted of 8 C57BL/6J-Tyrc-2J mice treated with PBS administered subcutaneously twice a week for 4 weeks. On day 14, the mice were treated with 50 mg/kg of the antisense oligonucleotide targeting C1 inhibitor, ISIS 461756, administered subcutaneously twice a week for 2 weeks. At the end of the treatment period, the mice were intraperitoneally administered 20 μg of captopril. The mice were then also intraperitoneally administered 30 μg of HOE-140. Group 4 served as a positive control for inhibition of vascular permeability with HOE-140.
as §1, with “5” for “3”, “40 mg/kg of control oligonucleotide ISIS 141923, a 5-10-5 MOE gapmer with no known murine target, ([…]; SEQ ID NO: 2246)” for “PBS”, “a” for “a PBS”, “permeability. […]” for “permeability.”

vascular leakage = assay: Vascular leakage, plasma Evans Blue OD620, captopril model (Example 13); format: in vivo, mouse; details: for Percentage of OD620 nm of Evans Blue dye compared to the PBS basal control, Plasma: captopril Yes
Experimental: Groups 4, 5, 6, 7, 8, and 9 consisted of 8 mice each and were treated with 2.5 mg/kg, 5 mg/kg, 10 mg/kg, 20 mg/kg, 40 mg/kg, or 80 mg/kg (corresponding to 5 mg/kg, 10 mg/kg, 20 mg/kg, 40 mg/kg, 80 mg/kg, or 160 mg/kg per week), respectively of ISIS 482584 administered subcutaneously twice a week for 3 weeks. At the end of the treatment period, the mice of all the groups were intraperitoneally administered 20 μg of captopril. Groups 4-9 served as the experimental treatment groups for examining the effect of varying doses of ISIS 482584 on captopril-induced vascular permeability.
All the groups were then injected with 30 mg/kg of Evans Blue solution in the tail vein. The mice were sacrificed 30 min after the Evans Blue solution administration and colons, feet, ears, and intestines were harvested. Blood samples were taken through cardiac puncture.
The blood drawn through cardiac puncture was immediately mixed with 3 times the volume of ice-cold ethanol. The solution was centrifuged at 15,000 g for 20 minutes at 4° C. to remove cell debris and precipitated plasma proteins. The ethanol extracts were further purified by ultra-filtration through a 10 kDa MWCO filter. The color intensity of the ethanol extracted plasma solution was then measured at OD620 nm. The results are presented in Table 67 as percentage increase or decrease of the OD values of the Group 1 PBS control.

[2] = ISIS 461756 Yes, ISIS oligonucleotides 40 mg/kg sc twice a week 4 weeks, HOE-140 30 μg ip
[3] = ISIS 461756 No, 40 mg/kg sc twice a week 4 weeks

Molecule: NC(N)=NCCC[C@@H](N)C(=O)N[C@@H](CCCN=C(N)N)C(=O)N1CCC[C@H]1C(=O)N1C[C@H](O)C[C@H]1C(=O)NCC(=O)N[C@@H](Cc1cccs1)C(=O)N[C@@H](CO)C(=O)N1Cc2ccccc2C[C@@H]1C(=O)N1[C@H](C(=O)N[C@@H](CCCN=C(N)N)C(=O)O)C[C@@H]2CCCC[C@@H]21 [HOE-140, Icatibant, reference compound]
- OD600 nm of Evans Blue dye, Colons [1, 2]: 0.14
- OD600 nm of Evans Blue dye, Ears [1, 2]: 0.09
- OD600 nm of Evans Blue dye, Feet [1, 2]: 0.07
- OD600 nm of Evans Blue dye, Intestines [1, 2]: 0.18
- Percentage of OD620 nm of Evans Blue dye compared to the PBS basal control, Plasma (vascular leakage; HOE-140 30 μg ip): 5%

Molecule: ISIS 482584: 5-10-5 MOE gapmer targeting murine PKK, GGCATATTGGTTTTTGGAAT; SEQ ID NO: 2244 (antisense eG*eG*e[5mC]*eA*eT*dA*dT*dT*dG*dG*dT*dT*dT*dT*dT*eG*eG*eA*eA*eT)
- vascular permeability ([1]; 40 mg/kg s.c. twice a week for 4 weeks, mice treated with captopril or captopril and ISIS 461756, vs PBS controls): prevents vascular permeability
- OD600 nm of Evans Blue dye, Colons [1, 3]: 0.27
- OD600 nm of Evans Blue dye, Ears [1, 3]: 0.14
- OD600 nm of Evans Blue dye, Feet [1, 3]: 0.07
- OD600 nm of Evans Blue dye, Intestines [1, 3]: 0.30
- OD600 nm of Evans Blue dye, Colons [1, 2]: 0.21
- OD600 nm of Evans Blue dye, Ears [1, 2]: 0.06
- OD600 nm of Evans Blue dye, Feet [1, 2]: 0.07
- OD600 nm of Evans Blue dye, Intestines [1, 2]: 0.34
- vascular leakage (vascular leakage; 160 mg/kg/week and 80 mg/kg/week, vs PBS negative control treated with captopril): less vascular leakage
- Percentage of OD620 nm of Evans Blue dye compared to the PBS basal control, Plasma (vascular leakage; dose 5 mg/kg): −23%
- Percentage of OD620 nm of Evans Blue dye compared to the PBS basal control, Plasma (vascular leakage; dose 10 mg/kg): −20%
- Percentage of OD620 nm of Evans Blue dye compared to the PBS basal control, Plasma (vascular leakage; dose 20 mg/kg): −26%
- Percentage of OD620 nm of Evans Blue dye compared to the PBS basal control, Plasma (vascular leakage; dose 40 mg/kg): −31%
- Percentage of OD620 nm of Evans Blue dye compared to the PBS basal control, Plasma (vascular leakage; dose 80 mg/kg): 40%
- Percentage of OD620 nm of Evans Blue dye compared to the PBS basal control, Plasma (vascular leakage; dose 160 mg/kg): 91%

Reference: patent US11840686B2, “Modulation of prekallikrein (PKK) expression” (Ionis Pharmaceuticals, Inc., priority 2013, dated 2023)
